Reference: patent US5656591A, “Antimicrobial agents and method for treating products therewith” (Morinaga Milk Industry Co., Ltd., priority 1992, dated 1997)

Experiments:
Escherichia coli 0-111 = assay: Test for antimicrobial activity (turbidity): growth inhibiting concentration of antibiotics; format: cell-based
Protocol: (§1) Precultures of test microorganisms to be used in the tests described hereunder were prepared in such a manner that: from the frozen preservation of dispersions of test microorganisms, a loop of the respective strains of the microorganisms were taken out and spread onto TRI PETIT CASE SOYA AGAR MEDIA (by BBL Company), and incubated at 37° C. for 16 hours; the colonies grown on the culture media were scraped by a platinum loop and cultivated in 2.1% Mueller-Hington Broth (by Difco Company) respectively for several hours at 37° C. The resultant microbial cultures at logarithmic phase in 3×10^8 /ml of microbial concentration were used as the precultures.
(§2) The test media to be used in the respective tests were prepared in such a manner that: aqueous solutions in a predetermined concentration of the lactoferrin hydrolysates or the lactoferrin-derived antimicrobial peptides of (1) and (2) in Preparation of Samples (supra), as well as the samples of antibiotics of (3) (supra) were respectively sterilized with filters (by Advantec Company); then a quantity of the resultant solutions of respective samples were selectively added to a quantity of basal medium (Mueller-Hington Broth) prepared in the eventual concentration of 2.1%, thereby combinations of the samples and their concentrations in the respective test media were adjusted as specified in the respective tests.
(§3) Antimicrobial activity was examined as follows: A quantity of the respective precultures prepared in (1) immediately above was diluted with 2.1% Mueller-Hington Broth to result in 2×10^6 /ml of microbial concentration; 100 μl aliquots of the resultant liquid were added to 100 μl aliquots of one of the test media as specified in the respective test; the resultant media were incubated at 37° C. for 16 hours; then the turbidity of the resultant culture broths were measured thereby antimicrobial activity was examined.
(§4) Components in the test and control media and eventual concentrations thereof were adjusted by properly combining 0 mg, 0.4 mg, 1.6 mg and 6.4 mg/ml of lactoferrin hydrolysate of (1) (in Preparation of Samples, supra). or 0 μg, 16 μg, 64 μg, and 256 μg/ml of lactoferrin-derived antimicrobial peptides of (2) (in Preparation of Samples, supra), and 0 μg, 0.01 μg, 0.1 μg, 1 μg, and 10 μg/ml of antibiotics of (3) (supra), then antimicrobial activity of the combined use of the components against Escherichia coli 0-111 and Staphylococcus aureus (JCM2151) as well as growth inhibiting concentrations of the antibiotics were investigated.

[1] = system: Staphylococcus aureus JCM2151; assay: as above; format: cell-based; settings: for MIC: Staphylococcus aureus
Protocol: as §1, §2, §3, §4

[2] = antimicrobial peptide (Seq. ID No. 27) 0 μg/ml
[3] = antimicrobial peptide (Seq. ID No. 27) 16 μg/ml
[4] = antimicrobial peptide (Seq. ID No. 27) 64 μg/ml
[5] = antimicrobial peptide (Seq. ID No. 27) 256 μg/ml
[6] = lactoferrin hydrolysate 0 mg/ml
[7] = lactoferrin hydrolysate 0.4 mg/ml
[8] = lactoferrin hydrolysate 1.6 mg/ml
[9] = lactoferrin hydrolysate 6.4 mg/ml
[10] = Escherichia coli, 0111, antimicrobial peptide (Seq. ID No. 27) 0 μg/ml
[11] = Escherichia coli, 0111, antimicrobial peptide (Seq. ID No. 27) 16 μg/ml
[12] = Escherichia coli, 0111, antimicrobial peptide (Seq. ID No. 27) 64 μg/ml
[13] = Escherichia coli, 0111, antimicrobial peptide (Seq. ID No. 27) 256 μg/ml
[14] = JCM2151, antimicrobial peptide (Seq. ID No. 27) 0 μg/ml
[15] = JCM2151, antimicrobial peptide (Seq. ID No. 27) 16 μg/ml
[16] = JCM2151, antimicrobial peptide (Seq. ID No. 27) 64 μg/ml
[17] = JCM2151, antimicrobial peptide (Seq. ID No. 27) 256 μg/ml

Compound | Growth inhibiting Concentration of antibiotics (Escherichia coli 0-111; [2]) [µg/mL] | Growth inhibiting Concentration of antibiotics (Escherichia coli 0-111; [3]) [µg/mL] | Growth inhibiting Concentration of antibiotics (Escherichia coli 0-111; [4]) [µg/mL] | Growth inhibiting Concentration of antibiotics (Escherichia coli 0-111; [5]) [µg/mL] | Growth inhibiting Concentration of antibiotics (Escherichia coli 0-111; [6]) [µg/mL] | Growth inhibiting Concentration of antibiotics (Escherichia coli 0-111; [7]) [µg/mL] | Growth inhibiting Concentration of antibiotics (Escherichia coli 0-111; [8]) [µg/mL] | Growth inhibiting Concentration of antibiotics (Escherichia coli 0-111; [9]) [µg/mL] | Growth inhibiting Concentration of antibiotics [1, 6] [µg/mL] | Growth inhibiting Concentration of antibiotics [1, 7] [µg/mL] | Growth inhibiting Concentration of antibiotics [1, 8] [µg/mL] | Growth inhibiting Concentration of antibiotics [1, 9] [µg/mL] | MIC (Escherichia coli 0-111; [10]) [µg/mL] | MIC (Escherichia coli 0-111; [11]) [µg/mL] | MIC (Escherichia coli 0-111; [12]) [µg/mL] | MIC (Escherichia coli 0-111; [13]) [µg/mL] | MIC [1, 14] [µg/mL] | MIC [1, 15] [µg/mL] | MIC [1, 16] [µg/mL] | MIC [1, 17] [µg/mL] | also measured
gentamicin | 1 | 1 | 0.1 | 0.1 | 1 | 1 | 0.1 | 0.1 | 1 | 0.1 | 0.1 | 0.1 |  |  |  |  |  |  |  |  | Growth inhibiting Concentration of antibiotics [1, 2]: 1 µg/mL; Growth inhibiting Concentration of antibiotics [1, 3]: 0.1 µg/mL; Growth inhibiting Concentration of antibiotics [1, 4]: 0.1 µg/mL; Growth inhibiting Concentration of antibiotics [1, 5]: 0.1 µg/mL
CN(C)[C@@H]1C(=O)C(C(N)=O)=C(O)[C@@]2(O)C(=O)C3=C(O)c4c(O)cccc4C(C)(O)[C@H]3C[C@@H]12 (stereo partly drawn) [hostacyclin] | 1 | 1 | 1 | 0.1 | 1 | 1 | 1 | 0.1 | 1 | 1 | 1 | 0.1 |  |  |  |  |  |  |  |  | Growth inhibiting Concentration of antibiotics [1, 2]: 1 µg/mL; Growth inhibiting Concentration of antibiotics [1, 3]: 1 µg/mL; Growth inhibiting Concentration of antibiotics [1, 4]: 1 µg/mL; Growth inhibiting Concentration of antibiotics [1, 5]: 0.1 µg/mL
COc1cccc(OC)c1C(=O)N[C@@H]1C(=O)N2[C@@H]1SC(C)(C)[C@@H]2C(=O)O [staphcillin] |  |  |  |  | > 1 | > 1 | > 1 | 0.1 | > 1 | > 1 | > 1 | 0.1 | > 1 | > 1 | 1 | 0.01 | > 1 | > 1 | 1 | 0.01 | 
O=C(N[C@H](CO)[C@H](O)c1ccc([N+](=O)[O-])cc1)C(Cl)Cl [chloramphenicol] |  |  |  |  | > 1 | > 1 | > 1 | 0.1 | > 1 | > 1 | > 1 | 1 | > 1 | > 1 | 1 | 0.1 | > 1 | > 1 | 1 | 1 | 
CC1(C)S[C@@H]2[C@H](NC(=O)[C@H](N)c3ccccc3)C(=O)N2[C@H]1C(=O)O [ampicillin] |  |  |  |  | > 1 | 1 | 1 | 0.01 | > 1 | 1 | 1 | 0.1 | > 1 | 1 | 1 | 0.1 | > 1 | 1 | 1 | 0.1 | 
CC[C@H]1OC(=O)[C@H](C)[C@@H](O[C@H]2C[C@@](C)(OC)[C@@H](O)[C@H](C)O2)[C@H](C)[C@@H](O[C@@H]2O[C@H](C)C[C@H](N(C)C)[C@H]2O)[C@](C)(O)C[C@@H](C)C(=O)[C@H](C)[C@@H](O)[C@]1(C)O [erythromycin] |  |  |  |  | > 1 | 1 | 1 | 0.1 | > 1 | 1 | 1 | 0.01 | > 1 | 1 | 1 | 0.01 | > 1 | 1 | 1 | 0.01 | 
NC[C@H]1O[C@H](O[C@H]2[C@H](O)[C@@H](O[C@H]3O[C@H](CO)[C@@H](O)[C@H](N)[C@H]3O)[C@H](N)C[C@@H]2N)[C@H](O)[C@@H](O)[C@@H]1O [kanamycin] |  |  |  |  | > 1 | > 1 | 1 | 0.1 | > 1 | > 1 | > 1 | 0.1 | > 1 | > 1 | 1 | 0.01 | > 1 | > 1 | 1 | 0.01 | 
polymyxin B | > 1 | > 1 | 0.1 | 0.1 | > 1 | > 1 | 0.1 | 0.01 | > 1 | 0.1 | 0.1 | 0.1 |  |  |  |  |  |  |  |  | Growth inhibiting Concentration of antibiotics [1, 2]: > 1 µg/mL; Growth inhibiting Concentration of antibiotics [1, 3]: 0.1 µg/mL; Growth inhibiting Concentration of antibiotics [1, 4]: 0.1 µg/mL; Growth inhibiting Concentration of antibiotics [1, 5]: 0.1 µg/mL
CC(=O)OCC1=C(C(=O)O)N2C(=O)[C@@H](NC(=O)Cc3cccs3)[C@H]2SC1 [cephalothin] |  |  |  |  | > 1 | > 1 | 1 | 0.01 | > 1 | 1 | 1 | 0.01 | > 1 | > 1 | 1 | 0.01 | > 1 | 1 | 1 | 0.01 | 
